Measured values as given in patent publication EP0107907A2, “Improvements in or relating to immunomodulating agents” (ELI LILLY AND COMPANY, priority 1982, dated 1984).

Tested on: murine macrophages
Experiment: In vitro activation of murine macrophages (macrophage-mediated tumor cytotoxicity against P815 cells)
Assay type: cell-based
Conditions: for Percent Macrophage Cytotoxicity: 48 hours; for immunomodulatory activity: in the in vitro assay
Protocol: In one procedure, the ability of the compounds to activate murine macrophages in vitro was determined. Peritoneal macrophages were exposed to a compound of formula 1, 2, or 3 simultaneously with the addition of target cells. Tumor cytotoxicity of these treated macrophages was determined 48 hours later by trypan blue enumeration. The percentage of growth inhibition of P815 cells due to composition-mediated macrophage activation was calculated by comparison to that of P815 cells grown in the.presence of macrophages exposed to buffer.

Structure (SMILES) | Percent Macrophage Cytotoxicity (Fosfomycin 10 µg/ml, Experiment 1) [%] | Percent Macrophage Cytotoxicity (Fosfomycin 10 µg/ml, Experiment 2) [%] | Percent Macrophage Cytotoxicity (Fosfomycin 100 µg/ml, Experiment 1) [%] | Percent Macrophage Cytotoxicity (Fosfomycin 100 µg/ml, Experiment 2) [%] | immunomodulatory activity
C[C@@H]1O[C@@H]1P(=O)(O)O [Fosfomycin, reference compound] | 49 | 11 | 47 | 30 | 
C[C@H](N)C(=O)N[C@@H](C)P(=O)(O)O [alaphosphin, L-alanyl-L-1-aminb-- ethylphosphonic acid, reference compound] |  |  |  |  | did not exhibit immunomodulatory activity
O=CN(O)CCCP(=O)(O)O [fosmidomycin, reference compound] |  |  |  |  | did not exhibit immunomodulatory activity
